Patent publication US20240082181A1, “Method for Treating Blood Cancers” (Lantern Pharma Inc., priority 2021, published 2024)

Columns and labels:
Type in all cases: cell-based
[1] = test system: REH; assay: Cell viability, Promega Celltiter Fluor (72 h); details: Homo sapiens, Acute Lymphoblastic Leukemia, assay duration 72 hours, read-out: LP-284 IC50
Method: (§1) The sensitivity and selectivity of Compound 1 (with positive optical chirality) was assessed using a panel of human blood cell lines. The cell lines used in this Example are shown below and plotted in FIG. 1. The cells were inoculated into 96 well plates at various numbers of cells/well depending on the doubling time of the cell line for 24 hours. Then these cells were treated by Compound 1 at 5˜8 different doses and DMSO vehicle controls. After another 48 or 72 hour incubation, the number viable cells/wells were measured by the sulforhodamine B (SRB) assay (48 h) or the Promega Celltiter Fluor Cell Viability (72 h). IC50 values were then calculated based on normalized cell counts at different Compound 1 doses. Anti-proliferative activity was determined by cell viability measurements.

[2] = test system: THP1; assay: Cell viability, Promega Celltiter Fluor (72 h); details: Homo sapiens, THP-1; THP1, Acute Myeloid Leukemia, assay duration 72 hours; read-out: LP-284 IC50
Method: as §1

[3] = test system: NCIH929; assay: Cell viability, Promega Celltiter Fluor (72 h); details: Homo sapiens, NCI-H929; NCIH929, Multiple Myeloma, assay duration 72 hours; read-out: LP-284 IC50
Method: as §1

[4] = test system: KU812; assay: Cell viability, Promega Celltiter Fluor (72 h); details: Homo sapiens; KU812, Chronic Myeloid Leukemia, assay duration 72 hours; read-out: LP-284 IC50
Method: as §1

[5] = test system: JEKO1; assay: Cell viability, Promega Celltiter Fluor (72 h); details: Homo sapiens, JeKo-1; JEKO1, Mantle Cell Lymphoma, assay duration 72 hours; read-out: LP-284 IC50
Method: as §1

[6] = test system: SUDHL6; assay: Cell viability, Promega Celltiter Fluor (72 h); details: Homo sapiens, SU-DHL-6; SUDHL6, Double-Hit Lymphoma, assay duration 72 hours; read-out: LP-284 IC50
Method: as §1

[7] = test system: AML193; assay: Cell viability, Promega Celltiter Fluor (72 h); details: Homo sapiens; AML193, Acute Myeloid Leukemia, assay duration 72 hours; read-out: LP-284 IC50
Method: as §1

[8] = test system: JVM2; assay: Cell viability, Promega Celltiter Fluor (72 h); details: Homo sapiens, JVM-2; JVM2, Mantle Cell Lymphoma, assay duration 72 hours; read-out: LP-284 IC50
Method: as §1

[9] = test system: K562R; assay: Cell viability, Promega Celltiter Fluor (72 h); details: Homo sapiens, K-562R, Chronic Myeloid Leukemia, assay duration 72 hours, read-out: LP-284 IC50
Method: as §1

[10] = test system: REC1; assay: Cell viability, Promega Celltiter Fluor (72 h); details: Homo sapiens; REC1, Mantle Cell Lymphoma, assay duration 72 hours; read-out: LP-284 IC50
Method: as §1

[11] = test system: SUPB15; assay: Cell viability, Promega Celltiter Fluor (72 h); details: Homo sapiens, SUP-B15; SUPB15, Acute Lymphoblastic Leukemia, assay duration 72 hours; read-out: LP-284 IC50
Method: as §1

[12] = test system: K562; assay: Cell viability, Promega Celltiter Fluor (72 h); details: Homo sapiens; K562, Chronic Myeloid Leukemia, assay duration 72 hours; read-out: LP-284 IC50
Method: as §1

[13] = test system: CA46; assay: Cell viability, Promega Celltiter Fluor (72 h); details: Homo sapiens; CA46, Burkitt's Lymphoma, assay duration 72 hours; read-out: LP-284 IC50
Method: as §1

[14] = test system: MAVER1; assay: Cell viability, Promega Celltiter Fluor (72 h); details: Homo sapiens; MAVER1, Mantle Cell Lymphoma, assay duration 72 hours; read-out: LP-284 IC50
Method: as §1

[15] = test system: U937; assay: Cell viability, Promega Celltiter Fluor (72 h); details: Homo sapiens, U-937; U937, Acute Myeloid Leukemia, assay duration 72 hours; read-out: LP-284 IC50
Method: as §1

[16] = test system: MINO; assay: Cell viability, Promega Celltiter Fluor (72 h); details: Homo sapiens, Mantle Cell Lymphoma, assay duration 72 hours, read-out: LP-284 IC50
Method: as §1

[17] = test system: Z138; assay: Cell viability, Promega Celltiter Fluor (72 h); details: Homo sapiens, Z-138; Z138, Mantle Cell Lymphoma, assay duration 72 hours; read-out: LP-284 IC50
Method: as §1

[18] = test system: HL60TB; assay: Cell viability, sulforhodamine B (SRB) assay (48 h); details: Homo sapiens, HL-60, Acute Myeloid Leukemia, assay duration 48 hours, read-out: LP-284 IC50
Method: as §1

[19] = test system: MOLT4; assay: as above; details: Homo sapiens, MOLT-4; MOLT4, Acute Lymphoblastic Leukemia, assay duration 48 hours; read-out: LP-284 IC50
Method: as §1

[20] = test system: CCRFCEM; assay: as above; details: Homo sapiens, CCRF-CEM, Acute Lymphoblastic Leukemia, assay duration 48 hours, read-out: LP-284 IC50
Method: as §1

[21] = test system: RPMI8226; assay: as above; details: Homo sapiens, RPMI-8226; RPMI8226, Multiple Myeloma, assay duration 48 hours; read-out: LP-284 IC50
Method: as §1

[22] = test system: SR; assay: as above; details: Homo sapiens, Anaplastic large cell lymphoma, assay duration 48 hours, read-out: LP-284 IC50
Method: as §1

CC1=C(CN(O)C(N)=O)C2=C(C)C3(CC3)[C@@](C)(O)C(=O)C2=C1 [LP-284, hydroxyureamethyl acylfulvene]
IC50 [1]: 114 nM | IC50 [2]: 1500 nM | IC50 [3]: 334 nM | IC50 [4]: 488 nM | IC50 [5]: 263 nM | IC50 [6]: 449 nM | IC50 [7]: 1800 nM | IC50 [8]: 343 nM | IC50 [9]: 295 nM | IC50 [10]: 794 nM | IC50 [11]: 588 nM | IC50 [12]: 298 nM | IC50 [13]: 431 nM | IC50 [14]: 193 nM | IC50 [15]: 660 nM | IC50 [16]: 88 nM | IC50 [17]: 370 nM | IC50 [18]: 952 nM | IC50 [19]: 9020 nM | IC50 [20]: 2220 nM | IC50 [21]: 348 nM | IC50 [22]: 896 nM
